This passage reports Ki and IC50 results from ChEMBL document CHEMBL1143172, “Profiling Protein Arginine Deiminase 4 (PAD4): a novel screen to identify PAD4 inhibitors” (Bioorg Med Chem, 2008).

The target of experiment [1] is T1, Protein-arginine deiminase type-4 (Homo sapiens, UniProt Q9UM07). The experiment in a line: Inhibition of PAD4 measured by intercept plot of Lineweaver-Burke analyses.
The target of experiment [2] is T1, Protein-arginine deiminase type-4. The experiment in a line: Inhibition of PAD4 by ABPP-based assay.
The target is the same in experiment [3]. The experiment in a line: Inhibition of PAD4 measured by slope plot of Lineweaver-Burke analyses.

T1 sequence (Q9UM07 whole entry): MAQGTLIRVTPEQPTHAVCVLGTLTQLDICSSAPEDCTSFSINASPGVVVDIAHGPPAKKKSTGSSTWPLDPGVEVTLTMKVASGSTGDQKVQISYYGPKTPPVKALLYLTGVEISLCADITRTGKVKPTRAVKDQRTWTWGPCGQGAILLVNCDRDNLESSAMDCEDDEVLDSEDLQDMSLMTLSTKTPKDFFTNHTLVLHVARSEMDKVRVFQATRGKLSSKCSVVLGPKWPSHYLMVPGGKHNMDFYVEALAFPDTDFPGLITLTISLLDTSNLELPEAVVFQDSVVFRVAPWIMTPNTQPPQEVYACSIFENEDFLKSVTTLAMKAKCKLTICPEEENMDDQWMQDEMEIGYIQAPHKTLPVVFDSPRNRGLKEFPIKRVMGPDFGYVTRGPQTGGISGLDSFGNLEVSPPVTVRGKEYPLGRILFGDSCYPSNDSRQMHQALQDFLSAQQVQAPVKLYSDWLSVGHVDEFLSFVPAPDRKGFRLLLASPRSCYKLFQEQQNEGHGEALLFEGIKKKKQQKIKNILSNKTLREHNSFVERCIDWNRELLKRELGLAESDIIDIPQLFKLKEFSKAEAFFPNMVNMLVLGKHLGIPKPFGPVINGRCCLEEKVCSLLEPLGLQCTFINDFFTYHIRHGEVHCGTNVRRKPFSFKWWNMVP

In the case of `CN(C)c1ccc(O)c2c1C[C@H]1CC3[C@H](N(C)C)C(O)=C(C(N)=O)C(=O)C3(O)C(O)=C1C2=O` (single isomer, unassigned) [MINOCYCLINE], the Ki in experiment [1] amounted to 630 µM; in experiment [3] it was 180 µM. Also, in experiment [2], it took 620 µM to reach half-maximal inhibition (IC50). In turn, `Cn1cnc([N+](=O)[O-])c1Sc1ncnc2nc[nH]c12` [AZATHIOPRINE] showed an IC50 in experiment [2] of 8100 µM. On the same count and under the same terms, in the case of `CC[C@H]1OC(=O)[C@H](C)[C@@H](O[C@H]2C[C@@](C)(OC)[C@@H](O)[C@H](C)O2)[C@H](C)[C@@H](O[C@@H]2O[C@H](C)C[C@H](N(C)C)[C@H]2O)[C@](C)(O)C[C@@H](C)CN(C)[C@H](C)[C@@H](O)[C@]1(C)O` [AZITHROMYCIN] it was > 10000 µM. In turn, `Cc1oncc1C(=O)Nc1ccc(C(F)(F)F)cc1` [LEFLUNOMIDE] came in with an IC50 in experiment [2] of 2400 µM. Regarding `CN(Cc1cnc2nc(N)nc(N)c2n1)c1ccc(C(=O)N[C@@H](CCC(=O)O)C(=O)O)cc1` [METHOTREXATE], in experiment [2], the IC50 was > 10000 µM.

`Cc1cc(NS(=O)(=O)c2ccc(N)cc2)no1` [SULFAMETHOXAZOLE]: the IC50 in experiment [2] is > 10000 µM. The compound `CN(C)[C@@H]1C(O)=C(C(N)=O)C(=O)[C@@]2(O)C(O)=C3C(=O)c4c(O)cccc4[C@@](C)(O)[C@H]3C[C@@H]12` [TETRACYCLINE] came in with an IC50 in experiment [2] of 780 µM.

What is called Ki is a dissociation constant, usually derived from enzyme kinetics or from competition with a known ligand. As usually defined, the IC50 is the concentration that gives 50% inhibition.
